Values quoted from earlier work in patent publication US9233901B2, “Synthetic navel orangeworm pheromone composition and methods relating to production of same” (Suterra LLC, priority 2008, dated 2016).

Test system: major pheromone binding protein (AtraPBP)
Conditions: shown in other studies (Leal et al. 2005)

affinity for binding to a major pheromone binding protein (AtraPBP): high affinity
Compound: CC/C=C\C=C/CCCCCCCCCC=O [HDAL, (Z, Z)-11,13-hexadecadienal]
